Measurements taken from US11590139B2, “Substituted aminopurine compounds, compositions thereof, and methods of treatment therewith” (Signal Pharmaceuticals, LLC, priority 2014, dated 2023).

System: Lox-IMVI melanoma cell line
Assay: Lox-IMVI anti-proliferative assay (growth inhibition, Cell Titer-Glo)
Format: cell-based, human
Conditions: Homo sapiens; Lox-IMVI melanoma cell line, anti-proliferative assay; read-out: Activity (IC50 activity level)
How it was run: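 Growth inhibition is assessed over 72 h in RPMI + 10% FBS at 0.2% DMSO, with ATP-based luminescence used as the viability measure. IC50 is fitted from normalized dose-response data.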

Row | IC50 [nM] | Structure (SMILES)
1 | < 250 | C[C@@H]1COCC[C@H]1Nc1ncc2nc(Nc3c(F)cc(Cl)cc3F)n([C@H]3CC[C@@](C)(C(N)=O)CC3)c2n1 [Example 722, (1S,4s)-4-(8-(4-chloro-2,6-difluorophenylamino)-2-((3S,4R)-3-methyltetrahydro-2H-pyran-4-ylamino)-9H-purin-9-yl)-1-methylcyclohexanecarboxamide]
2 | < 250 | C[C@]1(C(N)=O)CC[C@@H](n2c(Nc3c(F)cc(F)cc3Cl)nc3cnc(N[C@H]4CCOC[C@H]4F)nc32)CC1 [Example 724, (1R,4s)-4-(8-(2-chloro-4,6-difluorophenylamino)-2-((3S,4S)-3-fluorotetrahydro-2H-pyran-4-ylamino)-9H-purin-9-yl)-1-methylcyclohexanecarboxamide]
3 | < 250 | C[C@@H]1COCC[C@H]1Nc1ncc2nc(Nc3c(F)cc(F)cc3Cl)n([C@H]3CC[C@@](C)(C(N)=O)CC3)c2n1 [Example 725, (1S,4s)-4-(8-(2-chloro-4,6-difluorophenylamino)-2-((3S,4R)-3-methyltetrahydro-2H-pyran-4-ylamino)-9H-purin-9-yl)-1-methylcyclohexanecarboxamide]

Further lines, the compound ahead of its results:

Row | Structure (SMILES) | IC50 [nM]
4 | C[C@]1(C(N)=O)CC[C@@H](n2c(Nc3c(Cl)cc(Cl)cc3Cl)nc3cnc(N[C@H]4CCOC[C@H]4F)nc32)CC1 [Example 719, (1R,4s)-4-(2-((3S,4S)-3-fluorotetrahydro-2H-pyran-4-ylamino)-8-(2,4,6-trichlorophenylamino)-9H-purin-9-yl)-1-methylcyclohexanecarboxamide] | < 250
5 | C[C@]1(C(N)=O)CC[C@@H](n2c(Nc3c(F)cc(Cl)cc3F)nc3cnc(N[C@@H]4CCOC[C@H]4F)nc32)CC1 [Example 720, (1S,4s)-4-(8-(4-chloro-2,6-difluorophenylamino)-2-((3S,4R)-3-fluorotetrahydro-2H-pyran-4-ylamino)-9H-purin-9-yl)-1-methylcyclohexanecarboxamide] | < 250
6 | C[C@]1(C(N)=O)CC[C@@H](n2c(Nc3c(F)cc(Cl)cc3F)nc3cnc(N[C@H]4CCOC[C@H]4F)nc32)CC1 [Example 721, (1R,4s)-4-(8-(4-chloro-2,6-difluorophenylamino)-2-((3S,4S)-3-fluorotetrahydro-2H-pyran-4-ylamino)-9H-purin-9-yl)-1-methylcyclohexanecarboxamide] | < 250
7 | C[C@@H]1COCC[C@H]1Nc1ncc2nc(Nc3c(F)cc(F)cc3Cl)n([C@H]3CC[C@@H](C(N)=O)CC3)c2n1 [Example 723, (1S,4s)-4-(8-(2-chloro-4,6-difluorophenylamino)-2-((3S,4R)-3-methyltetrahydro-2H-pyran-4-ylamino)-9H-purin-9-yl)cyclohexanecarboxamide] | < 250
8 | C[C@]1(C(N)=O)CC[C@@H](n2c(Nc3c(F)cc(Cl)cc3Cl)nc3cnc(N[C@@H]4CCOC[C@H]4F)nc32)CC1 [Example 726, (1S,4s)-4-(8-(2,4-dichloro-6-fluorophenylamino)-2-((3S,4R)-3-fluorotetrahydro-2H-pyran-4-ylamino)-9H-purin-9-yl)-1-methylcyclohexanecarboxamide] | < 250
9 | C[C@@H]1COCC[C@H]1Nc1ncc2nc(Nc3c(Cl)cc(Cl)cc3Cl)n([C@H]3CC[C@@](C)(C(N)=O)CC3)c2n1 [Example 727, (1S,4s)-1-methyl-4-(2-((3S,4R)-3-methyltetrahydro-2H-pyran-4-ylamino)-8-(2,4,6-trichlorophenylamino)-9H-purin-9-yl)cyclohexanecarboxamide] | < 250
10 | NC(=O)[C@H]1CC[C@@H](n2c(Nc3c(F)cc(Cl)cc3Cl)nc3cnc(N[C@@H]4CCOC[C@H]4F)nc32)CC1 [Example 728, (1S,4s)-4-(8-(2,4-dichloro-6-fluorophenylamino)-2-((3S,4R)-3-fluorotetrahydro-2H-pyran-4-ylamino)-9H-purin-9-yl)cyclohexanecarboxamide] | < 250
